What was measured:
[1] = biological target: hGYS2 enzyme (recombinant hGYS2/GN1 protein) (Homo sapiens (Human), UniProt P54840); assay: GYS2 coupled enzyme assay (PK/LDH); type: biochemical; conditions: geometric mean of at least 2 assay runs on separate days, read-out: Avg_IC50
Method in brief: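 hGYS2/GN1 200 nM; UDP-Glc 2 mM; glycogen 0.2%; G6P 2 mM; PEP 2 mM, NADH 0.6 mM, PK/LDH 20 U/mL. 50 mM Tris pH 7.5, MgCl2, KCl, BSA, TCEP, 2.5% DMSO. Kinetic A340, 10 min. IC50 = geomean of ≥2 runs.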

[2] = biological target: hGYS1 enzyme (recombinant hGYS1/GN1 protein) (Homo sapiens (Human), UniProt P13807); assay: GYS1 coupled enzyme assay (PK/LDH); type: biochemical; conditions: hGYS1/GN1 50 nM, UDP-Glucose 0.8 mM, G6P 1 mM; geometric mean of at least 2 runs
hGYS1 enzyme (recombinant hGYS1/GN1 protein), sequence (P13807 whole entry): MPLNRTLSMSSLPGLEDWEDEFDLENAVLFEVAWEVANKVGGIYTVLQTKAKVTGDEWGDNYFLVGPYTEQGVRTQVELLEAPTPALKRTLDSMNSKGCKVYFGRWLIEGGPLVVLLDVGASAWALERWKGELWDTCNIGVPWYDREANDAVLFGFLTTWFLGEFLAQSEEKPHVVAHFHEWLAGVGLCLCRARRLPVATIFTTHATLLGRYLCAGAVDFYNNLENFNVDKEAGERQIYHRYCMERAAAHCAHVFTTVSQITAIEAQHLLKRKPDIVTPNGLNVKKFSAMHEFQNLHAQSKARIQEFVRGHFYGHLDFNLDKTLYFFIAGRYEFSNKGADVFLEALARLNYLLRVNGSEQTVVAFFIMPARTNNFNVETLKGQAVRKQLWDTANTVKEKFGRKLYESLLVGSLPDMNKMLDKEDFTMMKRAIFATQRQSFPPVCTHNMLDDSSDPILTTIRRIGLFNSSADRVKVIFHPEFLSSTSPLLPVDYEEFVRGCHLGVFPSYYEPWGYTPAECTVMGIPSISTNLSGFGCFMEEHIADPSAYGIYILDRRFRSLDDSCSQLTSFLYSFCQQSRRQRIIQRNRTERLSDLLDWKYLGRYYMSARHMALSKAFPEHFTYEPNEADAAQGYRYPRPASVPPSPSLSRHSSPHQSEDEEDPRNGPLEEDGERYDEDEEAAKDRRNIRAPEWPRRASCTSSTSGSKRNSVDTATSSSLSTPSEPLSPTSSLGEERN
hGYS1 enzyme (recombinant hGYS1/GN1 protein), sequence (P46976 whole entry partner): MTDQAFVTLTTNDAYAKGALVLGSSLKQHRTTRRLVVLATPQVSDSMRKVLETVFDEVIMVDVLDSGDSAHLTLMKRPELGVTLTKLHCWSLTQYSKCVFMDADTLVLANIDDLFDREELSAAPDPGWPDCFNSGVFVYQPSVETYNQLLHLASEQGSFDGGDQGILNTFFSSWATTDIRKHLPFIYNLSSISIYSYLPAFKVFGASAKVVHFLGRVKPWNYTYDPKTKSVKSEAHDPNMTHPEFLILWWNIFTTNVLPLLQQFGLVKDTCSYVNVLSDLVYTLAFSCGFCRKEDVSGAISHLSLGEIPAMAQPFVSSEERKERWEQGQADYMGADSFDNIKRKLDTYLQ

[3] = system: hGYS1 enzyme / glycogen synthesis in HeLa cells; assay: GYS1 cell based assay (glycogen synthesis, Glucose-glo); set-up: species or system human; conditions: 24 h incubation, 20 mM glucose, geometric mean of at least 2 runs
Method in brief: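 HeLa cells starved 24 h in medium containing only 1× Glutamax were plated onto compound in medium with 20 mM glucose (1% DMSO final) for 24 h, 37 °C, 5% CO2. Acid lysates were Tris-quenched, glucoamylase-digested (pH 5.3, 1 h, 37 °C) and read by Glucose-glo luminescence. IC50 came from Hill fits, as geometric mean of ≥2 runs.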

hGYS2 enzyme (recombinant hGYS2/GN1 protein), sequence (P54840 whole entry): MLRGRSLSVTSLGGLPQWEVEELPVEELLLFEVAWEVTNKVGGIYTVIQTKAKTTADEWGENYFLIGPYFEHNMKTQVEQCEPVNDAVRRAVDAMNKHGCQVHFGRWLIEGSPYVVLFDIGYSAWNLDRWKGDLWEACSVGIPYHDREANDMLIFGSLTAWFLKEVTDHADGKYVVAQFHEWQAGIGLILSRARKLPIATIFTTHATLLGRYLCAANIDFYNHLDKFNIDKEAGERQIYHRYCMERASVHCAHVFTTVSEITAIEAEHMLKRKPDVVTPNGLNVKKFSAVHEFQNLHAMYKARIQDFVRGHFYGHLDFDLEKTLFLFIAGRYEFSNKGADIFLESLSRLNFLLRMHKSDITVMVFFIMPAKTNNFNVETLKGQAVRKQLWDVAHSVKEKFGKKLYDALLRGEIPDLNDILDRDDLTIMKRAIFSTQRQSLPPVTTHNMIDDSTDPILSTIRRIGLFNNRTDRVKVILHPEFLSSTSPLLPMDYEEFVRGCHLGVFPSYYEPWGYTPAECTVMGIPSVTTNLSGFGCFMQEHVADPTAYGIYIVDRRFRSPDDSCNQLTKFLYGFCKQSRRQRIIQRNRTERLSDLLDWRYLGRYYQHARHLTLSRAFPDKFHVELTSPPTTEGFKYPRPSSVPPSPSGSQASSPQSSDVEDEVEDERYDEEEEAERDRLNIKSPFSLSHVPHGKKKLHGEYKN
hGYS2 enzyme (recombinant hGYS2/GN1 protein), sequence (P46976 whole entry partner): as the sequence (P46976 whole entry partner) above

Row | Structure (SMILES) | IC50 [1] | IC50 [2] | IC50 ([3]; Homo sapiens, HeLa, 24 h) | IC50 [3]
1 | O=C(N[C@@H](c1ccccc1)c1ccc(C2CC(F)(F)C2)cn1)[C@@H]1C[C@@H](F)CN1C(=O)CNC(=O)N1CC(F)(F)C1 [Compound 538, (2S,4R)-1-{2-[(3,3-difluoroazetidine-1-carbonyl)amino]acetyl}-N-[(S)-[5-(3,3-difluorocyclobutyl)pyridin-2-yl](phenyl)methyl]-4-fluoropyrrolidine-2-carboxamide] | > 100000 nM | 48 nM | 1220 nM | 
2 | CC(C)c1ccc([C@@H](NC(=O)[C@@H]2C[C@@H](F)CN2C(=O)Cc2cccn3c(=O)[nH]nc23)c2ccccc2)nc1F [Compound 391, (2S,4R)-4-fluoro-N-[(S)-[6-fluoro-5-(propan-2-yl)pyridin-2-yl](phenyl)methyl]-1-(2-{3-oxo-2H,3H-[1,2,4]triazolo[4,3-a]pyridin-8-yl}acetyl) pyrrolidine-2-carboxamide] | 89300 nM | 6 nM | 150 nM | 
3 | O=C(N[C@@H](c1ccccc1)c1ccc(C2CC(F)(F)C2)cn1)[C@@H]1C[C@@H](F)CN1C(=O)Cc1cnn[nH]1 [Compound 534, (2S,4R)-N-[(S)-[5-(3,3-difluorocyclobutyl)pyridin-2-yl](phenyl)methyl]-4-fluoro-1-[2-(1H-1,2,3-triazol-5-yl)acetyl]pyrrolidine-2-carboxamide] | > 100000 nM | 57 nM | 1280 nM | 
4 | O=C(N[C@@H](c1ccccc1)c1ccc(C2CC2)c(F)n1)[C@@H]1C[C@@H](F)CN1C(=O)Cn1cnnc1 [Compound 296, (2S,4R)-N-[(S)-(5-cyclopropyl-6-fluoropyridin-2-yl)(phenyl)methyl]-4-fluoro-1-[2-(4H-1,2,4-triazol-4-yl)acetyl]pyrrolidine-2-carboxamide] | > 100000 nM | 87 nM | 4440 nM | 
5 | Cn1nc(CC(=O)N2C[C@H](F)C[C@H]2C(=O)N[C@@H](c2ccccc2)c2ccc(C3CC3)c(F)n2)oc1=O [Compound 306, (2S,4R)-N-[(S)-(5-cyclopropyl-6-fluoropyridin-2-yl)(phenyl)methyl]-4-fluoro-1-[2-(4-methyl-5-oxo-4,5-dihydro-1,3,4-oxadiazol-2-yl)acetyl]pyrrolidine-2-carboxamide] | > 100000 nM | 78 nM | 810 nM | 
6 | O=C(N[C@@H](c1ccccc1)c1ccc(C2CC2)c(F)n1)[C@@H]1C[C@@H](F)CN1C(=O)Cc1ncco1 [Compound 312, (2S,4R)-N-[(S)-(5-cyclopropyl-6-fluoropyridin-2-yl)(phenyl)methyl]-4-fluoro-1-[2-(1,3-oxazol-2-yl)acetyl]pyrrolidine-2-carboxamide] | > 100000 nM | 97 nM | 830 nM | 
7 | C[C@H]1CC[C@@H](C(=O)N[C@@H](c2ccccc2)c2ccc(C3CC3)c(F)n2)N1C(=O)Cc1cnn[nH]1 [Compound 321, (2S,5S)-N-[(S)-(5-cyclopropyl-6-fluoropyridin-2-yl)(phenyl)methyl]-5-methyl-1-[2-(1H-1,2,3-triazol-5-yl)acetyl]pyrrolidine-2-carboxamide] | > 100000 nM | 124 nM | 1240 nM | 
8 | O=C(N[C@@H](c1ccccc1)c1ccc(C2CC(F)(F)C2)c(F)n1)[C@@H]1C[C@@H](F)CN1C(=O)Cc1[nH]nnc1C(F)(F)F [Compound 510, (2S,4R)-N-[(S)-[5-(3,3-difluorocyclobutyl)-6-fluoropyridin-2-yl](phenyl)methyl]-4-fluoro-1-{2-[4-(trifluoromethyl)-1H-1,2,3-triazol-5-yl]acetyl} pyrrolidine-2-carboxamide] | > 100000 nM | 9 nM | 230 nM | 
9 | CC(=O)N1C[C@H](C(=O)N2C[C@H](F)C[C@H]2C(=O)N[C@@H](c2ccccc2)c2ccc(C(C)C)cc2)[C@H]2OCC[C@H]21 [Compound 166, (2S,4R)-1-[(3aR,6S,6aR)-4-acetyl-hexahydro-2H-furo[3,2-b]pyrrole-6-carbonyl]-4-fluoro-N-[(S)-phenyl[4-(propan-2-yl)phenyl]methyl]pyrrolidine-2-carboxamide] | > 100000 nM | 56 nM | 780 nM | 
10 | CC(C)c1ccc([C@@H](NC(=O)[C@@H]2C[C@@H](F)CN2C(=O)CNC(=O)N2CCC2)c2ccccc2)nc1F [Compound 399, (2S,4R)-1-{2-[(azetidine-1-carbonyl)amino]acetyl}-4-fluoro-N-[(S)-[6-fluoro-5-(propan-2-yl)pyridin-2-yl](phenyl)methyl] pyrrolidine-2-carboxamide] | > 100000 nM | 8 nM | 150 nM | 

More lines, now with the values ahead:

Row | IC50 [1] | IC50 [2] | IC50 ([3]; Homo sapiens, HeLa, 24 h) | IC50 [3] | Structure (SMILES)
11 | > 100000 nM | 39 nM | 360 nM |  | CC(C)c1ccc([C@@H](NC(=O)[C@@H]2C[C@@H](F)CN2C(=O)Cc2ccn(C)n2)c2ccccc2)cc1 [Compound 49, (2S,4R)-4-fluoro-1-[2-(1-methyl-1H-pyrazol-3-yl)acetyl]-N-[(S)-phenyl[4-(propan-2-yl)phenyl]methyl]pyrrolidine-2-carboxamide]
12 | > 100000 nM | 71 nM | 1860 nM |  | CC(C)c1ccc([C@@H](NC(=O)[C@@H]2C[C@@H](F)CN2C(=O)Cn2cnnc2)c2ccccc2)cc1 [Compound 202, (2S,4R)-4-fluoro-N-[(S)-phenyl[4-(propan-2-yl)phenyl]methyl]-1-[2-(4H-1,2,4-triazol-4-yl)acetyl]pyrrolidine-2-carboxamide]
13 | > 100000 nM | 269 nM | 3920 nM |  | CC1(c2ccc([C@@H](NC(=O)[C@@H]3C[C@@H](F)CN3C(=O)CC3C(=O)Nc4ccccc43)c3ccccc3)cc2F)CC1 (stereo partly drawn) [Compound 581, (2S,4R)-4-fluoro-N-[(S)-[3-fluoro-4-(1-methylcyclopropyl)phenyl](phenyl)methyl]-1-[2-(2-oxo-2,3-dihydro-1H-indol-3-yl)acetyl]pyrrolidine-2-carboxamide]
14 | > 100000 nM | 37 nM | 450 nM |  | CC(C)c1ccc([C@@H](NC(=O)[C@@H]2C[C@@H](F)CN2C(=O)Cc2cnnn2C)c2ccccc2)cc1F [Compound 335, (2S,4R)-4-fluoro-N-[(S)-[3-fluoro-4-(propan-2-yl)phenyl](phenyl)methyl]-1-[2-(1-methyl-1H-1,2,3-triazol-5-yl)acetyl]pyrrolidine-2-carboxamide]
15 | > 100000 nM | 7 nM | 90 nM |  | Cc1cn(CC(=O)N2C[C@H](F)C[C@H]2C(=O)N[C@@H](c2ccccc2)c2ccc(C(C)C)c(F)c2)c(=O)n(C)c1=O [Compound 353, (2S,4R)-1-[2-(3,5-dimethyl-2,4-dioxo-1,2,3,4-tetrahydropyrimidin-1-yl)acetyl]-4-fluoro-N-[(S)-[3-fluoro-4-(propan-2-yl)phenyl](phenyl)methyl] pyrrolidine-2-carboxamide]
16 | > 100000 nM | 19 nM | 310 nM |  | CC(C)c1ccc([C@@H](NC(=O)[C@@H]2C[C@@H](F)CN2C(=O)COC(=O)N(C)C)c2ccccc2)cc1F [Compound 360, 2-[(2S,4R)-4-fluoro-2-{[(S)-[3-fluoro-4-(propan-2-yl)phenyl](phenyl)methyl]carbamoyl}pyrrolidin-1-yl]-2-oxoethyl N,N-dimethylcarbamate]
17 | > 100000 nM | 22 nM |  | 200 nM | CC(C(=O)N1C[C@H](F)C[C@H]1C(=O)N[C@@H](c1ccccc1)c1ccc(C2(C)CC2)c(F)c1)n1cnc2ccccc21 (single isomer, unassigned) [Compound 574, (2S,4R)-1-[(2S) or 2R)-2-(1H-1,3-benzodiazol-1-yl)propanoyl]-4-fluoro-N-[(S)-[3-fluoro-4-(1-methylcyclopropyl)phenyl](phenyl) methyl]pyrrolidine-2-carboxamide]
18 | > 100000 nM | 96 nM | 710 nM |  | O=C(NC(c1ccccc1)c1ccc(C2CCC2)c(F)c1)[C@@H]1C[C@@H](F)CN1C(=O)Cc1cnn[nH]1 (single isomer, unassigned) [Compound 674, (2S,4R)-N-[(S) or (R)-(4-cyclobutyl-3-fluorophenyl) (phenyl)methyl]-4-fluoro-1-[2-(1H-1,2,3-triazol-5-yl)acetyl]pyrrolidine-2-carboxamide]
19 | > 100000 nM | 357 nM |  | 5280 nM | CC(C(=O)N1C[C@H](F)C[C@H]1C(=O)N[C@@H](c1ccccc1)c1ccc(C2CC2)c(F)c1)n1cnc2ccccc21 (single isomer, unassigned) [Compound 810, (2S,4R)-1-[(2R) or (2S)-2-(1H-1,3-benzodiazol-1-yl)propanoyl]-N-[(S)-(4-cyclopropyl-3-fluorophenyl)(phenyl)methyl]-4-fluoropyrrolidine-2-carboxamide]
20 | > 100000 nM | 3 nM | 60 nM |  | O=C(N[C@@H](c1ccccc1)c1ccc(C2CC(F)(F)C2)c(F)n1)[C@@H]1C[C@@H](F)CN1C(=O)Cn1cnc2ccccc21 [Compound 504, (2S,4R)-1-[2-(1H-1,3-benzodiazol-1-yl)acetyl]-N-[(S)-[5-(3,3-difluorocyclobutyl)-6-fluoropyridin-2-yl](phenyl)methyl]-4-fluoropyrrolidine-2-carboxamide]

Reference: patent US11814367B2, “Inhibitors of glycogen synthase 1 (GYS1) and methods of use thereof” (Maze Therapeutics, Inc., priority 2021, dated 2023)
